Tests used:
[1] = system: symptomatic benign prostatic hyperplasia (BPH); assay: Prospective study of finasteride, insulin-6 and combination in symptomatic benign prostatic hyperplasia; assay type: in vivo; conditions: men with BPH
Method: A prospective study is used to evaluate the therapeutic effect of finasteride, insulin-6, and a combination of finasteride and insulin-6 drugs for symptomatic benign prostatic hyperplasia (BPH). In a protocol adapted from Kuo (Urol Int. 1998;60(2):85-91), 190 men suffering from severe prostatism are subjected to study.
Patients are assessed by IPSS symptom score, digital rectal examination, transrectal sonography of the prostate, uroflowmetry and residual urine. The patients are randomly selected for medical treatment with insulin-6 (n=71), finasteride 5 mg q.d. (n=54), and a combination (n=65). Clinical assessments are carried out before treatment and 3 and 6 months after starting treatment. Patients who can not complete the treatment and those with prostatic cancer are excluded from the final statistics. The quality of life after 6 months of treatment and side effects are also assessed.

[2] = system: androgen-induced prostatic enlargement in rats; assay: Androgen-induced prostatic enlargement in castrated rats, finasteride vs insulin-6; assay type: in vivo
Method: The efficacy of insulin-6 in reducing prostate growth is evaluated against finasteride in a comparative therapeutic protocol adapted from Talpur et al,0 Mol Cell Biochem. 2003 August;250(1-2):21-6. Pharmaceutical finasteride and alpha blockers are used to treat symptoms of benign prostatic hyperplasia (BPH) and are known to cause severe adverse reactions. The present study compares the in vivo effects of finasteride on androgen-induced prostatic enlargement in rats with insulin-6. Non-castrated rats, have a mean prostate weight of 124 mg+/−8.8 (S.E.M.) compared to the 24.5 mg+/−1.9 (S.E.M.) of a castrated rat followed under the same regimen (p<0.01). […] In the two treatment groups, castrated rats receiving testosterone are given finasteride or insulin-6.

[3] = system: dogs with spontaneous benign prostatic hypertrophy
Method: The effect of insulin-6 on prostate size in benign prostatic hyperplasia is evaluated in a comparative study of finasteride and insulin-6 on size of the prostate gland and semen quality in dogs with benign prostatic hypertrophy in a protocol adapted from Sirinarumitr et al., J Am Vet Med Assoc. 2001 Apr. 15;218(8):1275-80.
Of […] dogs with BPH, five dogs are treated with insulin-6 or finasteride for 16 weeks (0.1 to 0.5 mg/kg [0.05 to 0.23 mg/lb] of body weight, PO, q 24 h); the other 4 receive a placebo. Prostatic diameter, measured radiographically, prostatic volume, measured ultrasonographically, semen quality, and serum DHT and testosterone concentrations are evaluated before and during treatment. After receiving the placebo for 16 weeks, the control dogs are treated with insulin-6 or finasteride for 16 weeks, and evaluations repeated.

Compound	quality of life after treatment ([1]; after 6 months of treatment)	IPSS symptom score ([1]; at 3 and 6 months)	Maximal flow rate (Qmax) ([1]; at 6 months)	prostatic volume ([1]; at 6 months)	size of the prostate ([2]; castrated rats receiving testosterone plus treatment)	semen quality ([3]; dog, in vivo)	semen volume ([3]; dog, in vivo)	serum DHT concentration, mean percentage decrease ([3]; dogs with BPH, 16 weeks, 0.1 to 0.5 mg/kg PO q 24 h)	prostatic diameter, mean percentage decrease ([3]; dogs with BPH, 16 weeks, 0.1 to 0.5 mg/kg PO q 24 h, measured radiographically)	prostatic volume, mean percentage decrease ([3]; dogs with BPH, 16 weeks, 0.1 to 0.5 mg/kg PO q 24 h, measured ultrasonographically)	mean prostate weight ([2]; castrated rats given testosterone, S.E.M. 31.7, p<0.01)
CC(C)(C)NC(=O)[C@H]1CC[C@H]2[C@@H]3CC[C@H]4NC(=O)C=C[C@]4(C)[C@H]3CC[C@]12C [finasteride]	satisfactory	Improvement in IPSS is noted	significant increase in Qmax	found to decrease	decrease the size of the prostate to roughly the same size as in the non-castrated rats	do not adversely effect	decrease semen volume	58%	20%	43%	–
C[C@]12CC[C@H]3[C@@H](CCC4=CC(=O)CC[C@@]43C)[C@@H]1CC[C@@H]2O [testosterone]	–	–	–	–	–	–	–	–	–	–	250.0 mg
